Measured values published in BindingDB's records for doi:10.1021/cc100076k (Universidade Federal De SaO Carlo, 2010).
pIC50: −log10 of the molar value.

target: T1, Cathepsin L2 (Homo sapiens, UniProt O60911); assay: Inhibition Activity Assay; settings: pH 5.5; 27 °C
T1 sequence (O60911 whole entry): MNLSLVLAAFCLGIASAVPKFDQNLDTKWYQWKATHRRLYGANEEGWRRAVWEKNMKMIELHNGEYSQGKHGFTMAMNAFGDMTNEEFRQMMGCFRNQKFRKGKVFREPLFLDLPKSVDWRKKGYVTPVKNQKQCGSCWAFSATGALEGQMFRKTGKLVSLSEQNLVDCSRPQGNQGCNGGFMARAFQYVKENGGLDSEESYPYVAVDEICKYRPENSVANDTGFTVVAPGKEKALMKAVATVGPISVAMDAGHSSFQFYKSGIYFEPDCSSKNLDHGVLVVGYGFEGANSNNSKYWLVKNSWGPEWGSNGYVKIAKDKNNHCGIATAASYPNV
Text: Recombinant human cathepsin V was expressed and purified as described previously.

SMILES	pIC50
COc1ccc(C(=O)/C=C/c2ccc(OC)cc2OC)c(O)c1 [Flavonid, 5a]	< 4.30
COc1cccc(Cl)c1/C=C/C(=O)c1ccc(F)cc1O [Flavonid, 5b]	< 4.30
COc1cc(OC)c2c(=O)cc(-c3ccc(OC)c(OC)c3OC)oc2c1 [Flavonid, 6[2,3]]	< 4.30
COc1cc(OC)c2c(=O)cc(-c3ccc(-c4ccccc4)cc3)oc2c1 [Flavonid, 6[2,6]]	< 4.30
COc1ccc(-c2cc(=O)c3cc(OC)ccc3o2)c(OC)c1 [Flavonid, 6[4,2]]	< 4.30
COc1ccc2oc(-c3ccc(OC)c(OC)c3OC)cc(=O)c2c1 [Flavonid, 6[4,3]]	< 4.30
COc1ccc2oc(-c3ccc(-c4ccccc4)cc3)cc(=O)c2c1 [Flavonid, 6[4,6]]	4.72
COc1cccc(Cl)c1-c1cc(=O)c2ccc(F)cc2o1 [Flavonid, 6b]	< 4.30
O=c1cc(-c2c(F)cccc2Cl)oc2cc(F)ccc12 [Flavonid, 6e]	< 4.30

Now from value to compound:

pIC50	SMILES
4.92	COc1ccc(-c2cc(=O)c3cc(OC)ccc3o2)cc1 [6-methoxy-2-(4-methoxyphenyl)-1-benzopyran-4-one]
4.72	COc1ccc(-c2cc(=O)c3c(OC)cc(OC)cc3o2)c(OC)c1 [Flavonid, 6[2,2]]
6.10	COc1ccc(-c2cc(=O)c3cc(F)ccc3o2)cc1 [Flavonid, 6[3,1]]
5.80	COc1ccc(-c2cc(=O)c3cc(F)ccc3o2)c(OC)c1 [Flavonid, 6[3,2]]
5.39	COc1ccc(-c2cc(=O)c3cc(F)ccc3o2)c(OC)c1OC [Flavonid, 6[3,3]]
5.54	O=c1cc(-c2ccc(-c3ccccc3)cc2)oc2ccc(F)cc12 [Flavonid, 6[3,6]]
5.92	COc1ccc(-c2cc(=O)c3cc(Br)ccc3o2)c(OC)c1 [Flavonid, 6d]
